1 molecule from patent publication US20240174618A1, “SUBSTITUTED (2-HETEROARYLOXYPHENYL)SULFONATES, SALTS THEREOF AND THEIR USE AS HERBICIDAL AGENTS” (Bayer Aktiengesellschaft, priority 2021, published 2024) can be followed below.

The structures appear in SMILES notation.

Holding throughout (format): in vivo
One data set has as its system Brassica napus (BRSNW). Put plainly: D. Pre-emergence effect on useful plants, BRSNW. Particulars: useful plant, application rate 80 g/ha. The text has this: (§1) Seeds of monocotyledonous and dicotyledonous weed plants and crop plants were placed in plastic or organic planting pots and covered with soil. The compounds of the invention, formulated in the form of wettable powders (WP) or as emulsion concentrates (EC), were then applied to the surface of the covering soil as aqueous suspension or emulsion with addition of 0.5% additive at a water application rate equivalent to 600 l/ha (converted). After the treatment, the pots were placed in a greenhouse and kept under good growth conditions for the test plants. After about 3 weeks, the efficacy of the preparations was scored visually in comparison with untreated controls as percentages. For example, • 100% efficacy=plants have died, • 0% efficacy=like untreated control plants.
(§2) Tables D1a to D5b below show the effects of selected compounds of the general formula (I) according to table 1 on various useful plants at an application rate corresponding to 320 g/ha or less, which were obtained by the experimental procedure mentioned above.

In a further data set the test system is Veronica persica (VERPE). The data set is described as follows: E. Herbicidal post-emergence efficacy, VERPE. As to the method: (§3) Seeds of monocotyledonous and dicotyledonous weeds and crop plants were placed in sandy loam in plastic or organic planting pots, covered with soil and cultivated in a greenhouse under controlled growth conditions. 2 to 3 weeks after sowing, the test plants were treated at the one-leaf stage. The compounds of the invention, formulated in the form of wettable powders (WP) or as emulsion concentrates (EC), were then sprayed onto the green parts of the plants as aqueous suspension or emulsion with addition of 0.5% additive at a water application rate of 600 l/ha (converted). After the test plants had been kept in the greenhouse under optimum growth conditions for about 3 weeks, the activity of the preparations was rated visually in comparison to untreated controls.
(§4) For example, • 100% efficacy=plants have died, • 0% action=like untreated control plants.
(§5) Tables E1a to E12b below show the effects of selected compounds of the general formula (I) according to table 1 on various harmful plants at an application rate corresponding to 320 g/ha or less, which were obtained by the experimental procedure mentioned above.

For data set [1], the system named is Viola tricolor (VIOTR). Put plainly: E. Herbicidal post-emergence efficacy, VIOTR. On the procedure: as §3, §4, §5
Data set [2] has as its system Kochia scoparia (KCHSC). The data set is described as follows: C. Herbicidal pre-emergence efficacy, KCHSC.
Source text: as §1
(§6) Tables C1a to C14b below show the effects of selected compounds of the general formula (I) according to table 1 on various harmful plants at an application rate corresponding to 320 g/ha or less, which were obtained by the experimental procedure mentioned above.

The next data set deals with Zea mays (ZEAMX). The data set is described as follows: D. Pre-emergence effect on useful plants, ZEAMX. Particulars: useful plant.
Source text: as §1, §2

Data set [3] deals with Kochia scoparia (KCHSC). Put plainly: E. Herbicidal post-emergence efficacy, KCHSC. As to the method: as §3, §4, §5
Data set [4] concerns Amaranthus retroflexus (AMARE). Put plainly: C. Herbicidal pre-emergence efficacy, AMARE. The settings on record: scored after about 3 weeks.
Source text: as §1, §6

Data set [5] deals with Amaranthus retroflexus (AMARE). The data set is described as follows: E. Herbicidal post-emergence efficacy, AMARE. On the procedure: as §3, §4, §5
Data set [6] concerns Triticum aestivum (TRZAS). The data set is described as follows: F. Post-emergence effect on useful plants, TRZAS. Particulars: useful plant, application rate 80 g/ha. On the procedure:
as §3, §4
Tables F1a to F4 below show the effects of selected compounds of the general formula (I) according to table 1 on various useful plants at an application rate corresponding to 320 g/ha or less, which were obtained by the experimental procedure mentioned above.

Data set [7] deals with Triticum aestivum (TRZAS). The data set is described as follows: D. Pre-emergence effect on useful plants, TRZAS. Particulars: useful plant.
Source text: as §1, §2

Data set [8] concerns Viola tricolor (VIOTR). Put plainly: C. Herbicidal pre-emergence efficacy, VIOTR. Particulars: application rate 320 g/ha.
Source text: as §1, §6

Data set [9] has as its system Pharbitis purpurea (PHBPU). The data set is described as follows: E. Herbicidal post-emergence efficacy, PHBPU. On the procedure: as §3, §4, §5

As for `N#Cc1cccc(Oc2ncc(Cl)cn2)c1OS(=O)(=O)CC1CC1(Cl)Cl` (stereo not drawn) [Example I-78], the “Pre-emergence efficacy against BRSNW in %” value in the data set with Brassica napus (BRSNW) came out at 20%. Besides, the “Post-emergence efficacy against VERPE in %” value in the data set with Veronica persica (VERPE) (application rate 80 g/ha) and in the data set on Veronica persica (VERPE) (application rate 320 g/ha) was 100% in each case. The figures for the “Post-emergence efficacy against VIOTR in %” value in the data set on Viola tricolor (VIOTR) [1] (application rate 80 g/ha) and in the data set on Viola tricolor (VIOTR) [1] (application rate 320 g/ha) were 90% and 100%, respectively. The “Pre-emergence efficacy against KCHSC in %” value in the data set with Kochia scoparia (KCHSC) [2] (application rate 80 g/ha) and with Kochia scoparia (KCHSC) [2] (application rate 320 g/ha) was 100% in each case. Besides, the entries for the “Pre-emergence efficacy against ZEAMX in %” value in the data set with Zea mays (ZEAMX) (application rate 80 g/ha) and in the data set on Zea mays (ZEAMX) (application rate 320 g/ha) were 0% and 20%, respectively. Besides, the “Post-emergence efficacy against KCHSC in %” value in the data set on Kochia scoparia (KCHSC) [3] (application rate 80 g/ha) and with Kochia scoparia (KCHSC) [3] (application rate 320 g/ha) was 100% each time. The “Pre-emergence efficacy against AMARE” value in [4] (80 g/ha) and in [4] (320 g/ha) was 100% in each case. For the same molecule, the entries for the “Post-emergence efficacy against AMARE in %” value in [5] (application rate 80 g/ha) and in data set [5] (application rate 320 g/ha) were 90% and 100%, respectively. The “Post-emergence efficacy against TRZAS in %” value in data set [6] came out at 0%. Further, the “Pre-emergence efficacy against TRZAS in %” value in data set [7] (application rate 80 g/ha) and in [7] (application rate 320 g/ha) was 0% in each case. Further, in the data set on Viola tricolor (VIOTR) [8], the “Pre-emergence efficacy against VIOTR in %” value turned out to be 100%. Besides, the “Post-emergence efficacy against PHBPU in %” value in [9] (application rate 80 g/ha) worked out at 90%; in data set [9] (application rate 320 g/ha), 100%.
